pIC50: −log10 of the molar value.
What was measured:
[1] = Glucuronide kinetics assay (release of β-lapachone after β-glucuronide deprotection); format: physicochemical; settings: pH 7, 37° C., after β-glucuronide deprotection; first experiments
Description: (§1) Glucuronide prodrug (37a, b, c, d) was dissolved in DMSO to a concentration of 10 mM. A 100 mM stock solution of warfarin in DMSO was also prepared. To obtain deprotected para-hydroxybenzyl ketol species, the glucuronide stock solution was dissolved in PBS with 16.7% DMF to a concentration of 1.7 mM. 15 μL of a stock solution of R-glucuronidase from E. coli K-12 (Roche #03707580001, 140 U/mL) was added to 900 μL of this stock and incubated for 20 min at 37° C. 15 μL of a 100 mM stock of warfarin internal standard in DMSO was added. Reactions were then set up immediately. For a reaction, 30 μL of the amino-benzyl ketol/standard stock was added to 195 μL of citrate-phosphate buffer at the specified pH. Test samples were incubated at 37° C. with shaking. At the recorded time points, 20 μL aliquots of the reactions were analysed by HPLC (254 nm, Agilent 1260 Infinity). HPLC conditions: column Agilent InfinityLab Poroshell 120 SB—C18 2.7 μm, 50×4.6 mm; solvent system A=H2O+0.1% TFA, B=acetonitrile+0.1% TFA; flow=1 mL/min. Gradient: t=0-1 min 0% B, t=1-2 min 0-30% B, t=2-17 min 30-40% B, t=17-17.1 min 40-100% B, t=17.1-18 min 100% B, t=18-23 min 0% B. Relative peak area represents raw peak area (mAU*s) normalized to raw peak area of the warfarin internal standard. Values recorded are averages of three independent reactions and error bars display standard error of the mean. Values were fitted to first-order kinetics using GraphPad Prism 9 software. A positive control experiment was performed under identical conditions with known substrate 4-nitrophenyl-β-D-glucuronide (Sigma Aldrich) to confirm enzyme activity.

[2] = Stability of glucuronide prodrug to incubation at pH 7.4 at 37° C.; format: physicochemical; settings: pH 7.4, 37° C., 6 days; no β-lapachone observed
Description: An experiment testing the stability of compound 37a to incubation at pH 7.4 at 37° C. was also performed.

β-glucuronidase = molecular target: T1, β-glucuronidase (Escherichia coli, UniProt P05804); experiment: Incubation with β-glucuronidase (sugar deprotection); format: biochemical, E. coli K-12; settings: pH 7.4, 37° C.
T1 construct: purchased Roche 03707580001
Description: as §1, with “Values were fitted to first-order kinetics using GraphPad Prism 9 software. A positive control experiment was performed under identical conditions with known substrate 4-nitrophenyl-β-D-glucuronide (Sigma Aldrich) to confirm enzyme activity.” left out

range of cell lines = experiment: Toxicity of Gluc-PHB-BL against a range of cell lines with and without added β-glucuronidase; format: cell-based
Description: (§2) Assays assessing cytotoxicity of β-lapachone and derivatives were performed by CellTiter-Blue assay (Promega) according to the manufacturer's instructions. Briefly, adherent cancer-cell lines were plated at 20,000 cells/well in 96 well plates or suspension cell lines were plated at a concentration of 2×10^5 cells/mL in 24 well plates. Compound stocks in media were made by dilution of DMSO stocks containing the compound of interest to obtain a final in-plate DMSO concentration of only 0.1%. Incubation was performed for 48 h. Following incubation, media was replaced with media containing CellTiter-Blue (Promega) in 1:10 dilution and the plates were incubated for 1.5-4 h. The fluorescence of the plates was recorded (excitation 555 nm, emission 585 nm, MiniMax i3x Reader, Molecular Devices).
(§3) Cell viability was calculated by division of the fluorescence intensity of treated wells by that of the calculated average fluorescence intensity of replicate negative control wells containing cells with 0.1% DMSO only. Values and reported error bars represent the mean and standard error of the mean of three triplicate repeats for each concentration tested. IC50 values were calculated using GraphPad Prism 8 software.
(§4) The potential of compound 37a, glucuronide-PHB-BL, as a prodrug was investigated. As discussed above, at physiological pH the compound has a relatively slow-release rate. Toxicity of Gluc-PHB-BL 37a was tested against a range of cell lines with and without added β-glucuronidase. Addition of the enzyme mimics conditions of the solid tumour environment.

HeLa = experiment: Toxicity with/without β-glucuronidase, HeLa; format: cell-based
Description: as §2, §3, §4

SkBr-3 = experiment: Toxicity with/without β-glucuronidase, SkBr-3; format: cell-based
Description: as §2, §3, §4

HEK-293T = experiment: Toxicity with/without β-glucuronidase, HEK-293T; format: cell-based
Description: as §2, §3, §4

HL-60 = experiment: Toxicity with/without β-glucuronidase, HL-60; format: cell-based
Description: as §2, §3, §4

MOLM-13 = experiment: Toxicity with/without β-glucuronidase, MOLM-13; format: cell-based
Description: as §2, §3, §4

[3] = tested on: Panc-1 pancreatic cancer cell line; experiment: CellTiter Glo viability assay, Panc-1; format: cell-based
Description: (§5) For CellTiter Glo viability assays, 10,000 cells per well were plated on Day 1 and were allowed to adhere to the plate surface for 24 hours. Optimized concentration ranges of prodrugs were determined and made via serial dilution. […] Cells were incubated with compound for 48 hours and viability was assessed on Day 4 using the CellTiter Glo Viability assay which measures metabolically active cells by quantifying the amount of ATP present.
(§6) Panc-1 cells were obtained from Tony Kouzarides' lab in the Gurdon Institute at the University of Cambridge and put into culture at passage 10 containing DMEM media (Gibco) supplemented with 1% Pen-Strep antibiotic (Gibco), 1% L-glutamine, and 10% fetal bovine serum (FBS, sterile-filtered). Aspc-1 cells were bought commercially from the American Type Culture Collection (ATCC) and put into culture containing RPMI 1640 media (Gibco) supplemented with 1% Pen-Strep antibiotic (Gibco), 1% L-glutamine, and 20% fetal bovine serum (FBS, sterile-filtered). All cell lines were started at passage 10 and passaged every 3 days by centrifuging at 1000 rpm for 4 minutes.

[4] = tested on: Aspc-1 pancreatic cancer cell line; experiment: CellTiter Glo viability assay, Aspc-1; format: cell-based
Description: as §5, §6

[5] = Homo sapiens, read-out: IC50 Gluc-PHB-BL 37a

T1 sequence (P05804 whole entry): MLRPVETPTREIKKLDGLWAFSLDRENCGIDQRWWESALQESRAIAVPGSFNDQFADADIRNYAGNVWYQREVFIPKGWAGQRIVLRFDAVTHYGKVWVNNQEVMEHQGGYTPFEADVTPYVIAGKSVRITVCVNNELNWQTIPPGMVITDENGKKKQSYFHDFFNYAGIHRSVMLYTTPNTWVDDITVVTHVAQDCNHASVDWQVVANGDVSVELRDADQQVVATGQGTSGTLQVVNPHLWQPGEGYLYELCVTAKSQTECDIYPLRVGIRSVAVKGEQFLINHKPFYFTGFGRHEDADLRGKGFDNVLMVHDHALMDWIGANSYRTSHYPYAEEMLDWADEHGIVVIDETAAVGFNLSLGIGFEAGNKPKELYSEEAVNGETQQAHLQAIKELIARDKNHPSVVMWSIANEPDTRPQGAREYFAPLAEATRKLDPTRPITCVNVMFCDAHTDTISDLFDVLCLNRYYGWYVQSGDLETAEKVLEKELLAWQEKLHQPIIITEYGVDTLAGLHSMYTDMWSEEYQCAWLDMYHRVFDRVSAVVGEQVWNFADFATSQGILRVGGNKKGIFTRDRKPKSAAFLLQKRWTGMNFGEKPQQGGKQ

CC1(C)CCC2=C(O1)c1ccccc1C(O)(Cc1ccc(O[C@@H]3O[C@H](C(=O)O)[C@@H](O)[C@H](O)[C@H]3O)cc1)C2=O (stereo partly drawn) [Compound 37a, (2S,3S,4S,5R,6S)-3,4,5-trihydroxy-6-(4-((6-hydroxy-2,2-dimethyl-5-oxo-3,4,5,6-tetrahydro-2H-benzo[h]chromen-6-yl)methyl)phenoxy)tetrahydro-2H-pyran-2-carboxylic acid]
release rate of β-lapachone, kobs [1]: 1.09e-06 s⁻¹ | stability to incubation [2]: completely stable | sugar deprotection reaction (β-glucuronidase): rapid | toxicity without added β-glucuronidase (range of cell lines; concentrations up to 100 μM, apart from HEK-293T): not seen | times less toxic than β-lapachone 1 (comparison of estimated IC50) (range of cell lines; treated with β-glucuronidase, 48 h): 3.5-9.7 times | IC50 (37a)/ IC50 (1) (HeLa): 9.74 | pIC50 (HeLa; [5]): 4.38 | pIC50 (SkBr-3; Homo sapiens, SK-BR-3, read-out: IC50 Gluc-PHB-BL 37a): 4.62 | IC50 (37a)/ IC50 (1) (SkBr-3; SkBr-3): 8.73 | IC50 (37a)/ IC50 (1) (HEK-293T): 7.18 | pIC50 (HEK-293T; [5]): 4.68 | toxicity without added β-glucuronidase (HEK-293T; up to 100 μM): low toxicity | IC50 (37a)/ IC50 (1) (HL-60; HL-60): 3.51 | pIC50 (HL-60; Homo sapiens, HL-60, read-out: IC50 Gluc-PHB-BL 37a): 4.82 | pIC50 (MOLM-13; Homo sapiens, MOLM-13, read-out: IC50 Gluc-PHB-BL 37a): 4.10 | IC50 (37a)/ IC50 (1) (MOLM-13; MOLM-13): 6.50 | pIC50 ([3]; Homo sapiens, PANC-1, 48 h): 4.98 | toxicity without the β-glucuronidase enzyme ([3]; Panc-1, up to 100 μM): no toxicity | toxicity without the β-glucuronidase enzyme ([4]; Aspc-1, up to 100 μM): no toxicity | pIC50 ([4]; Homo sapiens, ASPC1, 48 h): 4.76

Reference: patent US20250170252A1, “QUINONE PROTECTED FORMS AND CONJUGATES” (CAMBRIDGE ENTERPRISE LIMITED, priority 2022, published 2025)
